Data on 11 molecules can be found in patent US12416018B2, “Regulation of gene expression by aptamer-mediated modulation of alternative splicing” (MEIRAGTX GENE REGULATION LIMITED, priority 2015, dated 2025).

Data set [1] deals with luciferase expression in HEK 293 cells. The format is cell-based. The settings on record: for luciferase expression with / without theophylline (in words): HEK 293 cells. An excerpt: A DHFR-acceptor vector was constructed to facilitate the cloning of an aptamer sequence attached to the hairpin stems with different length. The theophylline aptamer sequence used was: ggcgatac[…]gcagegtc (SEQ ID NO:9). Theophylline aptamer oligonucleotides (“oligos”) with 4 nucleotide overhang at 5′ end were synthesized (IDT), annealed and ligated to BsaI-digested DHFR-acceptor vector. HEK 293 cells were transfected with the luciferase reporter constructs with the regulation cassette containing the theophylline aptamer, as described in Example 1. Four hours after transfection, the media was aspirated, and new media with or without 3 mM theophylline was added, and luciferase was assayed 20 to 24 hours after theophylline treatment. The fold induction was expressed as the quotient of luciferase activity obtained in the presence of aptamer ligand divided by the value obtained in the absence of the aptamer ligand.

Data set [2] has the same test system. Type of data set: cell-based. The settings on record: for fold induction of luciferase expression over un-induced baseline: 500 µM; for induced luciferase level as percent of Con1 (maximal expression): guanine treatment (500 μM), HEK 293 cells; for regulation of luciferase expression by guanine (in words): with or without 500 μM guanine. On the procedure:
(§1) Xpt-guanine aptamer with the following sequence: cactcatataat[…]cgact atgggtg (SEQ ID NO.: 10), was used to construct a riboswitch. Oligos containing the sequence of guanine aptamer and hairpin stem with 4 nucleotide 5′ overhang were synthesized (IDT), annealed and then ligated to BsaI-digested DHFR-acceptor vector. HEK 293 cells were transfected as described in Example 1. Four hours after transfection, the media was aspirated, and new media with or without 500 μM guanine was added. Luciferase expression was assayed 20 to 24 hrs after guanine treatment as described in Example 1 and Example 4. HepG2, AML12, RD and C2C12 (ATCC) were cultured using the protocol recommended by ATCC. The intron-exon-intron cassette containing the xpt-G17 riboswitch (SEQ ID NO.: 15) was inserted in the leader peptide sequences of the anti-KDR antibody gene and into the Stul site in mouse erythropoietin gene using Gibson cloning strategy (NEB). Constructs containing mouse erythropoietin (Epo) or anti-KDR antibody were transfected into HEK 293 cells. Four hour after transfection, the media was aspirated, and new media with or without 500 μM guanine was added. Supernatants were subjected to ELISA assay for the production of either anti-KDR antibody or the production of mouse Epo (R&D Systems).
(§2) Constructs were made using Golden Gate cloning strategy (NEB). […] Luciferase activity was assayed as described in Example 5.
The Con1 construct was used as a template for PCR amplification of intron fragments that have either upstream or downstream intron deletions. To generate constructs that have single intron deletions, PCR products were cloned into the constructs containing the xpt-G17 riboswitch using Golden Gate cloning strategy (NEB). To generate constructs with both upstream and downstream intron deletions, fragments released by EcoRI and BamHI from constructs with single deletions in the downstream intron sequence were cloned into EcoRI and BamHI-digested constructs with single deletions in the upstream intron sequence.
Sequences of mutant human Wilms tumor 1 exon 5 (mutWT1-e5, SEQ ID NO.: 61), SIRT1 exon 6 (SIRT1-e6, SEQ ID NO.: 62), mouse calcium/calmodulin-dependent protein kinase II delta exon 16, or 17 (Camk2d-e16 or e17, SEQ ID NOs.: 59, 60), and synthetic exon ENEEE (SEQ ID NO.: 63) were synthesized (IDT) and cloned into the DHFR-G17 vector in place of the DHFR exon using Gibson Cloning kit (NEB). Plasmid DNA was transfected into HEK 293 cells, treated with 500 μM guanine, and luciferase assay performed as described in Example 1. The sequences of each exon with 5′ and 3′ splice sites are shown with exonic sequences in uppercase letters (Table 5, SEQ ID NOS.: 59 to 63).

The subject of data set [3] is luciferase gene with two copies of the xpt-G15 containing regulatory cassette (xpt-G15 double). Nature of the data set: Live animal bioluminescence imaging after hydrodynamic DNA delivery to mouse liver. The format is in vivo, mice. Here is the method: Hydrodynamic DNA delivery and drug treatment: 5 μg or 10 μg of endotoxin-free plasmid DNA containing the luciferase gene with two copies of the xpt-G15 containing regulatory cassette (xpt-G15 double, SEQ ID NO.: 64; Example 8, FIG. 8a), diluted in saline (Qiagen Endofree kit) was injected through tail vein in a volume of 10% body weight over 5 to 10 seconds to 6-7 weeks old CD-1 female mice. Guanosine (Sigma) was suspended in 0.5% methylcellulose/0.25% Tween 80 (Sigma) in water freshly and administrated orally at 2 hr and 12 hr post DNA injection, or, delivered through intraperitoneal injection (IP) at 5 hr, 12 hr, 16 hr and 24 hr post DNA delivery.
Noninvasive live animal bioluminescence imaging: before imaging, mice were anesthesized with 2% isoflurane, and injected with […] body weight of luciferin, and images were taken within 2 to 5 minutes after luciferin injection using Bruker Xtreme system at the indicated time point post DNA injection. Luciferase activity was expressed as mean photon/sec±s.d. The induction fold was calculated as the quotient of photon/sec obtained in mice treated with guanosine divided by value obtained in mice without guanosine treatment.

Data set [4] has as its system luciferase expression in HepG2 cells. The format is cell-based. Here is the method: as §1
Data set [5] deals with xpt-G15 double cassette. Nature of the data set: Guanine dose response of luciferase expression, xpt-G15 double. The format is cell-based. On the procedure: as §2
Data set [6] relates to xpt-G17 containing cassette. Nature of the data set: Guanine dose response of luciferase expression, single xpt-G17 cassette. The format is cell-based. The settings on record: single copy xpt-G17 cassette. Here is the method:
as §2

The test system of data set [7] is firefly luciferase gene expression in HEK 293 cells. Nature of the data set: Firefly luciferase assay of HEK 293 cells transfected with splicing / Intron-Exon-Intron constructs (no ligand). The format is cell-based. On the procedure: Transfection: 3.5×10^4 HEK 293 cells were plated in 96-well flat bottom plate the day before transfection. Plasmid DNA (500 ng) was added to a tube or a 96-well U-bottom plate. Separately, TransIT-293 reagent (Mirus; 1.4 uL) was added to 50 μL Opti-mem I media (Life Technologies), and allowed to sit for 5 minutes at room temperature (RT). Then, 50 μL of this diluted transfection reagent was added to the DNA, mixed, and incubated at room temperature (“RT”) for 20 min. Finally, 7 μL of this solution was added to a well of cells in the 96-well plate.
Firefly luciferase assay of cultured cells: 24 hours after media change, plates were removed from the incubator, and equilibrated to RT for several minutes on a lab bench, then aspirated. Glo-lysis buffer (Promega, 100 μL, RT) was added, and the plates allowed to remain at RT for at least 5 minutes. Then, the well contents were mixed by 50 μL trituration, and 20 μL of each sample was mixed with 20 μL of bright-glo reagent (Promega) that had been diluted to 10% in glo-lysis buffer. 96 wells were spaced on an opaque white 384-well plate. Following a 5 min incubation at RT, luminescence was measured using Tecan machine with 500 mSec read time. The luciferase activity was expressed as mean relative light unit (RLU)±S.D.
The constructs were verified by DNA sequencing (Genewiz). DNA was transfected in HEK 293 cells and assayed for luciferase activity as described in Example 1.
Sequences containing the DHFR exon 2 with native 3′ and 5′ ss sequences, in which the 5′ss was embedded in a hairpin structure were synthesized (IDT), and cloned into the indicated vector using Golden Gate cloning strategy (NEB). Constructs were transfected into HEK 293 cells and assayed for luciferase activity as described in Example 1.

Entries after “also recorded” stand apart in the source; their conditions may differ. Like-named read-outs stand apart in the source and are kept apart here.

On to “DHFR_Theo13: theophylline aptamer cassette, 8 bp stem (chain 1 TTCAGTAGAAGGTAATGTGA; chain 2 GCACATTACGCACCAT; chemistry not fully specified)”, for which, in data set [1], the “luciferase expression with / without theophylline (in words)” value is listed as “luciferase expression is suppressed in the absence of theophylline”. For the same molecule, the “luciferase level as percent of Con1 control vector” value in data set [1] (in the presence of theophylline (3 mM)) is recorded as “about 56%”.

On to “DHFR_G15: luciferase construct with the xpt-G15 containing regulatory cassette (SEQ ID NO: 46) (chain 1 GTAGAAGGTAATGTGTAT; chain 2 CTACACATTACGCAC; chemistry not fully specified)”, for which, in data set [2], the “fold induction of luciferase expression over un-induced baseline” value (shortened to “fold induction … over un-induced baseline”) was 60 fold and the “induced luciferase level as percent of Con1 (maximal expression)” value (“induced luciferase level as percent” for short) was approximately 100%.

In the case of “DHFR_G16: luciferase construct with xpt-guanine aptamer cassette, truncated stem (chain 1 GTAGAAGGTAATGTTAT; chain 2 CTAACATTACGCAC; chemistry not fully specified)”, in data set [2], the “fold induction … over un-induced baseline” value is given as “about 800 fold” and the “induced luciferase level as percent” value was found to be 83%.

For the molecule `Nc1nc2c(ncn2[C@@H]2O[C@H](CO)[C@@H](O)[C@H]2O)c(=O)[nH]1` [guanosine], the fold induction at 100 mg/kg in data set [3] (Mus musculus, ip, 100 mg/kg guanosine intraperitoneally, 11 hours post DNA injection, read-out: fold induction of luciferase compared to uninduced baseline) is 4.7. In data set [3] (Mus musculus, ip, 300 mg/kg guanosine intraperitoneally, 11 hours post DNA injection, read-out: fold induction of luciferase compared to uninduced baseline), the fold induction at 300 mg/kg amounted to 16.2. The “luciferase expression in liver after oral guanosine (in words)” value in data set [3] (oral dosing 2 hr and 12 hr after DNA delivery) was “higher luciferase expression at 9 hours post DNA; also recorded: dose related activation of expression of the regulated target gene in the liver of the mice”. In data set [3] (oral guanosine), the “time of highest luciferase expression post DNA injection” value was found to be 48 h.

“DHFR_G17: luciferase construct containing xpt-G17 regulatory cassette (SEQ ID NO: 15) (chain 1 GTAGAAGGTAATGTAT; chain 2 CTACATTACGCAC; chemistry not fully specified)”: the “induced luciferase level as percent” value in data set [2] was “about 65%”. Further, the “fold induction of luciferase expression” value in data set [4] is on record as “more than 500 fold”.

“DHFR_G14: luciferase construct with xpt-guanine aptamer cassette, truncated stem (chain 1 GTAGAAGGTAATGTGATAT; chain 2 CTATCACATTACGCAC; expressed or natural sequence)”: the “induced luciferase level as percent” value in data set [2] is approximately 100%.

“DHFR_Theo14: theophylline aptamer cassette, 7 bp stem (chain 1 TTCAGTAGAAGGTAATGTA; chain 2 GACATTACGCACCAT; expressed or natural sequence)”: in data set [1], the “luciferase expression with / without theophylline (in words)” value is on record as “no luciferase expression either with or without theophylline”.

Usually EC50 stands for the concentration needed to bring the measured effect to its halfway point. The low end stands for an effect from little substance, the high end for a need for much substance. In the case of `Nc1nc2nc[nH]c2c(=O)[nH]1` [guanine], the “EC50 for xpt-G15 double relative to single xpt-G17 (times lower)” value in data set [5] (xpt-G15 double vs xpt-G17) is 5 times. Further, the EC50 in data set [5] (xpt-G15 double, luciferase) was determined as 43 µM; in data set [6], 206 µM.

B1: 2IR-3: xpt-G17 cassette, two intron deletions; SEQ ID NO: 31 (nucleic acid)
DNA: GTGAGTCTATGGGACCCTTGATGTTTTCTTTCCCTGCTCAAATCAGGGTAATTTTGCATTTGTAATTTTAAAAAATGCTTTCTTCTTTTAATATACTTTTTTGTTTATCTTATTTCTAATACTTTCCCTAATCTCTTTCTTTCAGGGCAATAATGATACAATGTATCATGCCGAGTAACGCTGTTTCTCTAACTTGTAGGAATGAATTCAGATATTTCCAGAGAATGAAAAAAAAATCTTCAGTAGAAGGTAATGTATAATCGCGTGGATATGGCACGCAAGTTTCTACCGGGCACCGTAAATGTCCGACTACATTACGCACCATTCTAAAGAATAACAGTGATAATTTCTGGGTTAAGGCAATAGCTGCTGAGGTTTCATATTGCTAATAGCAGCTACAATCCAGCTACCATTCTGCTTTTATTTTATGGTTGGGATAAGGCTGGATTATTCTGAGTCCAAGCTAGGCCCTTTTGCTAATCATGTTCATACCTCTTATCTTCCTCCCACAG
modifications: xpt-G17-2IR-3
For B1, in data set [2], the “fold induction … over un-induced baseline” value was 4744 fold and the “regulation of luciferase expression by guanine (in words)” value is recorded as “significant increase in the fold of target gene expression”.

B2: Camk2d-e16: DHFR-G17 vector with mouse calcium/calmodulin-dependent protein kinase II delta exon 16 in place of DHFR exon; SEQ ID NO: 59 (nucleic acid)
DNA: GAGTAACGCTGTTTCTCTAACTTGTAGTGAGCCCCAAACTACTGTAATCCACAACCCTGACGGAAACAAGGTAATGT
B2: the “regulation of luciferase expression by guanine (in words)” value in data set [2] (listed as CaMKIId-e16) is given as “equivalent fold induction to the DHFR exon with SRp40 activating mutation (mtDHFR)”; in data set [2] (listed as CamkIId-e16) it was “nearly equivalent fold induction compared to DHFR-xpt-G17”.

B3: DHFR_wtmtSRp40_HP15x: DHFR_wtmtSRp40 with broken hairpin; SEQ ID NO: 57 (nucleic acid)
DNA: GAGTAACGCTGTTTCTCTAACTTGTAGGAATGAATTCAGATATTTCCAGAGAATGAAAAAAAAATCTTCAGTAGAAGGTAATGTGGCGAAAAACAGAACTGAGTAT
modifications: expressed or natural sequence
Take B3: the “luciferase expression relative to control constructs (in words)” value in data set [7] is “blocked luciferase expression; also recorded: prevents expression of luciferase”.
